According to the supplement of paper PMC10307832:

Legend:
Test in all cases: relative viability (nuclei count vs DMSO), 5 days (fraction); higher = more cells survive
[1] = compound: CC(C)=CC[C@@H](O)C1=CC(=O)c2c(O)ccc(O)c2C1=O [Shikonin] + Cc1cc(Nc2cc(N3CCN(C)CC3)nc(Sc3ccc(NC(=O)C4CC4)cc3)n2)n[nH]1 [Tozasertib] (partner 0.1 µM)
In short: (§1)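 The day after seeding in 1536-well plates, lung cancer cell lines were treated by pin tool with a single drug, or with a fixed anchor-drug dose together with five library-drug doses (not always all listed) in √10 steps. After 5 days, a combined fix-and-stain solution (final 0.05% Triton X-100, 1% formaldehyde, 1 ug/ml Hoechst) was added. Nuclei counted on 4× images gave relative viability as treated counts over vehicle counts, reported as the median of duplicate plates.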

[2] = compound: CC(C)=CC[C@@H](O)C1=CC(=O)c2c(O)ccc(O)c2C1=O [Shikonin] + Nc1nc2[nH]cc(CCc3ccc(C(=O)N[C@@H](CCC(=O)O)C(=O)O)cc3)c2c(=O)[nH]1 [Pemetrexed] (partner 0.2 µM)
In short: as §1

[3] = compound: CC(C)N(CCCNC(=O)Nc1ccc(C(C)(C)C)cc1)C[C@H]1O[C@@H](n2ccc3c(N)ncnc32)[C@H](O)[C@@H]1O + N=C(N)NC(=N)NCCc1ccccc1 [Phenformin] (partner 250 µM)
In short: as §1

[4] = compound: CC(C)=CC[C@@H](O)C1=CC(=O)c2c(O)ccc(O)c2C1=O [Shikonin] + NC(=O)Nc1cc(-c2cccc(F)c2)sc1C(=O)N[C@H]1CCCNC1 [AZD7762] (partner 0.2 µM)
In short: as §1

Cell Line | relative viability ([1]; first compound 0.01 µM) | relative viability ([1]; first compound 0.1 µM) | relative viability ([1]; first compound 0.3162 µM) | relative viability ([1]; first compound 1 µM) | relative viability ([2]; first compound 0.01 µM) | relative viability ([2]; first compound 0.1 µM) | relative viability ([2]; first compound 0.3162 µM) | relative viability ([2]; first compound 1 µM) | relative viability ([3]; first compound 0.08 µM) | relative viability ([3]; first compound 0.253 µM) | relative viability ([3]; first compound 0.8 µM) | relative viability ([3]; first compound 2.53 µM) | relative viability ([3]; first compound 8 µM) | relative viability ([4]; first compound 0.01 µM) | relative viability ([4]; first compound 0.1 µM) | relative viability ([4]; first compound 0.3162 µM) | relative viability ([4]; first compound 1 µM)
NCI-H661 | 0.371 | 0.359 | 0.355 | 0.37 | 0.944 | 1.02 | 0.957 | 0.729 | 0.28 | 0.27 | 0.276 | 0.288 | 0.305 | – | – | – | –
NCI-H727 | 1.64 | 0.672 | 0.634 | 0.697 | – | – | – | – | 0.554 | 0.461 | 0.46 | 0.639 | 0.412 | 0.682 | 0.584 | 0.732 | 0.647
NCI-H1563 | – | – | – | – | 0.769 | 0.846 | 0.897 | 0.845 | 0.67 | 0.627 | 0.626 | 0.666 | 0.697 | – | – | – | –
NCI-H1623 | 0.423 | 0.472 | 0.441 | 0.449 | – | – | – | – | 0.547 | 0.666 | 0.597 | 0.607 | 0.565 | – | – | – | –
NCI-H1648 | 0.537 | 0.404 | 0.471 | 0.408 | 0.793 | – | 0.979 | 0.742 | – | – | – | – | – | 0.829 | – | 0.825 | 0.457
NCI-H1650 | 0.419 | 0.367 | 0.365 | 0.3 | 0.35 | 0.403 | 0.331 | 0.274 | 0.311 | 0.424 | – | 0.429 | 0.473 | – | – | – | –
NCI-H1703 | – | – | – | – | – | – | – | – | – | – | – | – | – | – | 0.125 | 0.124 | 0.113
NCI-H1792 | – | – | – | – | 0.819 | 0.82 | 0.689 | 0.958 | 0.374 | – | 0.223 | 0.418 | 0.472 | 0.663 | 0.618 | 0.604 | 0.694
NCI-H2009 | 0.747 | 0.774 | 0.815 | 0.56 | 1.11 | 1.06 | 1.09 | 1.05 | 0.489 | 0.496 | 0.475 | 0.474 | 0.426 | – | – | – | –
NCI-H2023 | 0.477 | 0.453 | 0.383 | 0.412 | 0.239 | 0.235 | 0.221 | 0.262 | 0.41 | 0.427 | 0.445 | 0.405 | 0.353 | – | – | – | –
NCI-H2228 | 0.177 | 0.273 | 0.234 | 0.212 | 0.314 | 0.355 | 0.38 | 0.355 | 0.403 | 0.297 | 0.298 | 0.274 | 0.231 | – | – | – | –
SK-LU-1 | 0.317 | 0.338 | 0.351 | 0.3 | 1.14 | 1.17 | 1.01 | 0.994 | 0.569 | 0.493 | 0.519 | 0.56 | 0.45 | – | – | – | –
SK-MES-1 | 1.1 | 1.05 | 0.998 | 0.857 | 0.923 | 1.17 | 0.984 | 1.01 | 0.663 | 0.669 | 0.692 | 0.69 | 0.617 | – | – | – | –
SW 1573 | 0.194 | 0.24 | 0.188 | 0.0571 | 0.946 | 0.947 | 0.589 | 0.143 | 0.262 | 0.403 | 0.435 | 0.391 | 0.378 | – | – | – | –
